The target of assay [1] is T1, human PFKM (Homo sapiens, UniProt P08237).
T1 construct: made in house; host or cells: Sf9 insect cells (baculovirus)
T1 sequence (P08237 1-780): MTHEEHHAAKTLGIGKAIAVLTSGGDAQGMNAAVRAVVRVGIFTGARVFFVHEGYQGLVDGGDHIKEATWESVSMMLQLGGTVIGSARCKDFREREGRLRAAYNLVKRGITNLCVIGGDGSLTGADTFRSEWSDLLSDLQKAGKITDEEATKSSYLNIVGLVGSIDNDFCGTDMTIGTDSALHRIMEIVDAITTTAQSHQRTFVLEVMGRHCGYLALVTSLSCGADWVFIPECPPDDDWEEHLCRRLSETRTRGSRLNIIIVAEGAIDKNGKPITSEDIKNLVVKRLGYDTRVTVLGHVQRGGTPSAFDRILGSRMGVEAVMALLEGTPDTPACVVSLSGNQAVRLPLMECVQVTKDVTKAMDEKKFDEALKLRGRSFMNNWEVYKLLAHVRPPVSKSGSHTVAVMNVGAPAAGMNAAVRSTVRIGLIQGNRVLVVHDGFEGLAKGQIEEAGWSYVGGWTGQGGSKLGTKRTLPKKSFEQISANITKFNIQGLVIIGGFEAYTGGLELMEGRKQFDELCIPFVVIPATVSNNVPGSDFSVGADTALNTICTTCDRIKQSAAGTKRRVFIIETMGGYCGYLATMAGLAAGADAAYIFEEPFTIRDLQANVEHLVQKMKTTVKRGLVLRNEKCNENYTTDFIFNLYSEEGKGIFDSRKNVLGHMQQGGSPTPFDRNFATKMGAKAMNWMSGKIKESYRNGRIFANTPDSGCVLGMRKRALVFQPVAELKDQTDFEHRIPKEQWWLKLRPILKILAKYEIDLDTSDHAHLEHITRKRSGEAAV
As to the kind of experiment: Recombinant PFKM activity assay. The note with it: for activation of PFKM: at concentrations up to 100 μM. In kind it is biochemical. From the text:
(§1) Recombinant N-terminal His-tagged human PFKL (NP_002617), PFKM (NP_000280), and PFKP (NM_002627.4) were generated as described ([Webb et al., 2015], [2017]). Point mutants of PFK1 were generated using the QuikChange Lightning kit (Aligent).
(§2) His-tagged PFK1 was expressed and purified as described with slight modifications ([Webb et al., 2015], [2017]). Briefly, baculovirus was generated using the Bac-to-Bac Expression system (Invitrogen). PFK1 was expressed in 2-5 × 10^6 sf9 cells at a multiplicity of infection of two for 48 h. Cells were lysed in 20 mM HEPES, pH 7.5, 80 mM potassium phosphate, 1 mM 2-mercapentoethanol, 10% glycerol, 10 mM imidazole, and EDTA-free Protease Inhibitor Cocktail (Abcam) with a Dounce homogenizer. The soluble lysate was incubated with HisPur cobalt resin (ThermoFisher Scientific). The resin was washed with 5 bead volumes lysis buffer, 10 bead volumes lysis buffer containing 2 M NaCl, and 5 further bead volumes lysis buffer. PFK1 was eluted in lysis buffer containing 100 mM imidazole. Fractions containing protein were pooled, passed over a desalting column equilibrated in freezing buffer [20 mM HEPES pH 7.5, 1 mM DTT, 500 μM ammonium sulfate, 5% glycerol, 1 mM ATP, and 100 μM EDTA] and concentrated using an Amicon Ultracel-30K Centrifugal Filter Unit (MilliporeSigma). Protein was quantified using a Bradford Protein Assay kit (ThermoFisher Scientific), and aliquotes frozen in liquid nitrogen for storage at −80°C.
PFK1 activity was determined using the rate of FBP production via an auxiliary enzyme assay adapted to a 96-well format ([Brüser et al., 2012]; [Webb et al., 2015]). The auxiliary enzymes aldolase, triosephosphate isomerase, and glycerol phosphate dehydrogenase were purchased from MilliporeSigma as ammonium sulfate slurries and desalted using an Amicon Ultracel-10K Centrifugal Filter Unit. For assays containing FBP, the rate of ADP production was determined using the auxiliary enzymes pyruvate kinase (PK) and lactate dehydrogenase (LDH) (MilliporeSigma) in a buffer containing 250 μM phosphoenolpyruvic acid, […] NADH, 50 mM HEPES pH 7.5, 100 mM KCl, 1 mM DTT, and effector concentrations as described in the text. The temperature was equilibrated to 25°C for 5 min before initiating the reaction 10 mM MgCl2. Absorbance at 340 nm was measured using a Varioskan LUX Multimode microplate reader (ThermoFisher). Kinetic parameters were generated by nonlinear regression analysis using Prism (GraphPad Software) and are the mean of a minimum of three measurements from two independent preparations of protein. One unit of activity was defined as the amount of enzyme that catalyzed the formation of 1 μmol of fructose 1,6-bisphosphate per min at 25°C. […]

Assay [2] has as its target T2, PFKL(K315R) (PFKL−pocket) (Homo sapiens, UniProt P17858, K315R).
T2 construct: made in house; host or cells: Sf9 insect cells (baculovirus)
T2 sequence (P17858 1-780 K315R): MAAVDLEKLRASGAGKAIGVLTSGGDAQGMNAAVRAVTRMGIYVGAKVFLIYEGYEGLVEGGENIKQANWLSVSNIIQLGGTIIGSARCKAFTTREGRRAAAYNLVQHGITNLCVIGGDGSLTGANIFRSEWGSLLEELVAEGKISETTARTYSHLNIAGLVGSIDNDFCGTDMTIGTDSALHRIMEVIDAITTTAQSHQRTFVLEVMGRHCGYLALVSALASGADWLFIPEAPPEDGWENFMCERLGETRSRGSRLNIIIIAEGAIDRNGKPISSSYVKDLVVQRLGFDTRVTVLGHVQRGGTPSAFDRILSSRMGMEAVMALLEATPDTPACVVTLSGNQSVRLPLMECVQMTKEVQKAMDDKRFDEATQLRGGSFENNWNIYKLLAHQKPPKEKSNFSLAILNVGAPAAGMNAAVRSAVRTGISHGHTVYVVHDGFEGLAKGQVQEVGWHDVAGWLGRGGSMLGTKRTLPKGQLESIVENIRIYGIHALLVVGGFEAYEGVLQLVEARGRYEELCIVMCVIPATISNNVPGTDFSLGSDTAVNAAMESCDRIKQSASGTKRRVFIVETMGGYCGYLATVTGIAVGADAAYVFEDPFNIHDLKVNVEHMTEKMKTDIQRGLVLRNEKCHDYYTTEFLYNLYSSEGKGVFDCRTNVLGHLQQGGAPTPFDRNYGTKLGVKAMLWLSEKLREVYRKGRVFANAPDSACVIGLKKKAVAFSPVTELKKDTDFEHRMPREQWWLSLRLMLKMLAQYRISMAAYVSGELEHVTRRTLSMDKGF
As to the kind of experiment: Recombinant PFKL−pocket activity assay. In kind it is biochemical. The conditions noted are these: for EC50: pH 7.5, 3.1 mM ATP, 4 mM F6P, mean ± SEM, read-out: EC50, activation of PFKL−pocket.
Excerpt: as §1, §2
PFK1 activity was determined using the rate of FBP production via an auxiliary enzyme assay adapted to a 96-well format ([Brüser et al., 2012]; [Webb et al., 2015]). The auxiliary enzymes aldolase, triosephosphate isomerase, and glycerol phosphate dehydrogenase were purchased from MilliporeSigma as ammonium sulfate slurries and desalted using an Amicon Ultracel-10K Centrifugal Filter Unit. For assays containing FBP, the rate of ADP production was determined using the auxiliary enzymes pyruvate kinase (PK) and lactate dehydrogenase (LDH) (MilliporeSigma) in a buffer containing 250 μM phosphoenolpyruvic acid, […] NADH, 50 mM HEPES pH 7.5, 100 mM KCl, 1 mM DTT, and effector concentrations as described in the text. The temperature was equilibrated to 25°C for 5 min before initiating the reaction 10 mM MgCl2. Absorbance at 340 nm was measured using a Varioskan LUX Multimode microplate reader (ThermoFisher). Kinetic parameters were generated by nonlinear regression analysis using Prism (GraphPad Software) and are the mean of a minimum of three measurements from two independent preparations of protein. One unit of activity was defined as the amount of enzyme that catalyzed the formation of 1 μmol of fructose 1,6-bisphosphate per min at 25°C. Assays for PFKM were performed at pH 7.0 due to the pH-dependence of ATP inhibition ([Trivedi and Danforth, 1966]).

Setting [3] is: PFKL−pocket, pH 7.5, 225 μM ATP.
Setting [4] is: PFKM wild type, pH 7.0, 250 μM ATP.

Molecules are shown by their SMILES.

With `COc1ccccc1-c1cc2n(n1)Cc1ccc(NC(C)=O)cc1OC2` [LDC7559, reference compound], the “activation of PFKM” value in assay [1] is “failed to activate”.
In the case of `O=C(CO)[C@@H](O)[C@H](O)[C@H](O)COP(=O)(O)O` [F6P, fructose 6-phosphate], in assay [2] (setting [3]), the “Vmax,F6P” value is 14.68 ± 0.98 micromoles FBP per minute per milligram PFK1 and the “hF6P (Hill coefficient)” value is on record as 3.26 ± 0.48. Further, in assay [1] (setting [4]), the “Vmax,F6P” value is reported as 19.14 ± 0.74 micromoles FBP per minute per milligram PFK1 and the “hF6P (Hill coefficient)” value is 4.62 ± 1.38.
As for `CC(=O)Nc1ccc2c(c1)OCc1cc(-c3ccccc3)nn1C2` [NA-5], in assay [2], the “fold change of EC50,NA-5 of PFKL−pocket versus wild-type PFKL” value was ~ 30 fold and the EC50 (in general, the concentration that produces a half-maximal response) stood at 615 ± 138 nM.
Take `CC(=O)Nc1ccc2c(c1)OCc1cc(-c3ccccc3C#CCCCO)nn1C2` [NA-11]: the EC50 in assay [2] turned out to be 167 ± 27.8 nM. In addition, the “activation of PFKM” value in assay [1] was “failed to activate”.

(Values after publication PMC8802628, “Selective activation of PFKL suppresses the phagocytic oxidative burst” (Cell, 2021).)
